PubChem BioAssay (NCI)
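Compound exposure: 48 hours, 5 concentrations, 96-well plates. The concentration for full growth arrest is given as TGI.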

These compounds were tested on IGROV1 ovarian (assay: inhibition of tumour cell growth, NCI panel, 48 h).

For `CCN(CC)/C(Cl)=C(Cl)\C(=C1\Nc2ccc(OC)cc21)[N+](=O)[O-]`, the TGI was over 100 µM.

These compounds were tested on CAKI-1 renal (assay: inhibition of tumour cell growth, NCI panel, 48 h).

Point of comparison: `CC(=O)c1sc2c(c1OC(=O)c1cccs1)c(=O)n(-c1ccccc1)c(=S)n2-c1ccccc1`, TGI 61.1 µM. Against it:
- Cc1ccc2c(c1CCCC(C)(C)O)C(=O)C(=O)C(C(C)C)=C2O — higher, > 100 µM
- C[C@]12CCC(=O)C=C1CC[C@@H]1C2CC[C@]2(C)c3nn(-c4ccc(F)cc4)nc3CC12 (stereo not given in full) — higher, > 100 µM
- CN(C)C(=O)NCCN1CCCCCc2ccccc21 — higher, > 100 µM
- O=C1C(Cl)C(c2ccccc2)N1n1cnc2ccccc2c1=O (stereo not given) — higher, > 100 µM
- CN(C)C(=O)OCOC(=O)N(C)C — higher, > 100 µM
- COC(=O)c1ccc(/C=C2\N=C(C)OC2=O)cc1 — higher, > 100 µM
- Cc1ccc2nc(-c3ccc(N)c(I)c3)sc2c1 — higher, > 100 µM
- CCOC(=O)c1nc2c(Cl)c3ncccc3cc2[nH]c1=O — higher, > 100 µM
- CCOC(=O)C1=C(Nc2cccc(OC)c2)OCC1=O — higher, > 100 µM
- CO[C@H]1[C@@H](O)[C@@H](C)O[C@@H](O[C@H]2CC[C@@]3(C)[C@H](CC[C@@H]4[C@@H]3CC[C@]3(C)[C@@H](C5=CC(=O)OC5)[C@@H](OC(C)=O)C[C@]43O)C2)[C@@H]1O — 850-fold lower, 0.0719 µM
- COc1ccc2c(c1)CC[C@@H]1[C@@H]2CC[C@]2(C)C(=O)/C(=C/c3ccc(OC)c(OC)c3)C[C@@H]12 — higher, > 100 µM
- CCCCN1C=CN2c3nc4cc(C)c(C)cc4n3C(C(=O)OC)=C(C(=O)OC)C12 (stereo not given) — higher, > 100 µM
- COC(=O)C(=C/c1ccc(OC)cc1)/C(C(=O)O)=C(/C)c1ccccc1 — higher, > 100 µM
- C=C1C(=O)O[C@H]2[C@H]1[C@@H](OC(=O)C=C(C)C)CC1=C[C@@H](C[C@@]3(C)O[C@@H]23)OC1=O — 6.7-fold lower, 9.11 µM
- CCC1c2[nH]c3ccccc3c2C[C@H]2C(=O)NC(COC(C)(C)C)C(=O)N12 (stereo not given in full) — higher, > 100 µM
- CCOC(=O)CC1CCN(C(=O)c2ccccc2)C2Cc3c([nH]c4ccccc34)C12C[N+](=O)[O-] (stereo not given) — higher, > 100 µM
- CCOC(=O)C(N=Nc1ccc(S(N)(=O)=O)cc1)C(C)=O (stereo not given) — higher, > 100 µM
- CCN1CCN(c2ccc(Nc3ccnc4ccc5nn(C)nc5c34)cc2)CC1 — 2.1-fold lower, 29 µM
- OCC1OC(n2cnc3c2NC=NC[C@H]3O)C(O)C1O (stereo not given in full) — higher, > 450 µM
- CNC(=S)N/N=C(C)\C(=N/NC(=S)NC)c1ccccc1 — higher, > 100 µM
- O=[N+]([O-])c1ccc(-n2nnc(C3=NCCCN3)c2-c2ccc(Cl)cc2)cc1 — higher, > 100 µM
- CCCCCC(C[N+]1(C)CCOCC1)C(=O)/C=C/c1ccccc1 (stereo not given) — 1.9-fold lower, 32.1 µM
- CC1(C#N)CC(C)(C)C(/C=C2/CC(C)(C)C(/C=C3/OC(=N)CC3(C)C)=N2)=N1 (stereo not given) — higher, > 100 µM
- COc1ccc(C[N+]23C(CC[C@H]2c2ccccc2)CC[C@H]3c2ccccc2)cc1 (stereo not given in full) — higher, > 100 µM
- O=C1c2cc3c(cc2CC12Cc1cc4c(cc1C2=O)CCC4)CCCC3 (stereo not given) — higher, > 100 µM
- CCOC(=O)CC1c2ccc(O)cc2OC(=O)C1c1ccc([N+](=O)[O-])cc1 (stereo not given) — 1.5-fold higher, 94.5 µM
- CC(=O)OCC1OC(Nc2ncc(-c3ccc(C)cc3)s2)C(OC(C)=O)C(OC(C)=O)C1OC(C)=O (stereo not given) — higher, > 81.1 µM
- CCN(CC)/C(Cl)=C(Cl)\C(=C1\Nc2ccc(OC)cc21)[N+](=O)[O-] — higher, > 100 µM

These compounds were tested on SF-295 CNS (assay: inhibition of tumour cell growth, NCI panel, 48 h).

Point of comparison: `CCN1CCN(c2ccc(Nc3ccnc4ccc5nn(C)nc5c34)cc2)CC1`, TGI 25.5 µM. Against it:
- Cc1ccc2c(c1CCCC(C)(C)O)C(=O)C(=O)C(C(C)C)=C2O — higher, > 100 µM
- CC(=O)c1sc2c(c1OC(=O)c1cccs1)c(=O)n(-c1ccccc1)c(=S)n2-c1ccccc1 — 3.6-fold lower, 7.13 µM
- C[C@]12CCC(=O)C=C1CC[C@@H]1C2CC[C@]2(C)c3nn(-c4ccc(F)cc4)nc3CC12 (stereo not given in full) — higher, > 100 µM
- CN(C)C(=O)NCCN1CCCCCc2ccccc21 — higher, > 100 µM
- O=C1C(Cl)C(c2ccccc2)N1n1cnc2ccccc2c1=O (stereo not given) — higher, > 100 µM
- CN(C)C(=O)OCOC(=O)N(C)C — higher, > 100 µM
- CC(=O)Oc1ccccc1-c1cc2ccccc2oc1=O — higher, > 100 µM
- COC(=O)c1ccc(/C=C2\N=C(C)OC2=O)cc1 — higher, > 100 µM
- Cc1ccc2nc(-c3ccc(N)c(I)c3)sc2c1 — 1.8-fold higher, 44.9 µM
- CCOC(=O)c1nc2c(Cl)c3ncccc3cc2[nH]c1=O — higher, > 100 µM
- CCOC(=O)C1=C(Nc2cccc(OC)c2)OCC1=O — higher, > 100 µM
- O=C1NC(=O)C(CCO)(c2ccccc2)C(=O)N1 — higher, > 100 µM
- CO[C@H]1[C@@H](O)[C@@H](C)O[C@@H](O[C@H]2CC[C@@]3(C)[C@H](CC[C@@H]4[C@@H]3CC[C@]3(C)[C@@H](C5=CC(=O)OC5)[C@@H](OC(C)=O)C[C@]43O)C2)[C@@H]1O — 46-fold lower, 0.55 µM
- COc1ccc2c(c1)CC[C@@H]1[C@@H]2CC[C@]2(C)C(=O)/C(=C/c3ccc(OC)c(OC)c3)C[C@@H]12 — higher, > 100 µM
- Cc1cn(C2CC(ON3C(=O)c4ccccc4C3=O)C(CO)O2)c(=O)[nH]c1=O (stereo not given) — not separable, > 10 µM
- C=CCn1c(=O)n(CC=C)c(=O)n(CC=C)c1=O — higher, > 100 µM
- CCCCN1C=CN2c3nc4cc(C)c(C)cc4n3C(C(=O)OC)=C(C(=O)OC)C12 (stereo not given) — higher, > 100 µM
- COC(=O)C(=C/c1ccc(OC)cc1)/C(C(=O)O)=C(/C)c1ccccc1 — higher, > 100 µM
- C=C1C(=O)O[C@H]2[C@H]1[C@@H](OC(=O)C=C(C)C)CC1=C[C@@H](C[C@@]3(C)O[C@@H]23)OC1=O — within 1.5-fold, 28.4 µM
- CCC1c2[nH]c3ccccc3c2C[C@H]2C(=O)NC(COC(C)(C)C)C(=O)N12 (stereo not given in full) — 2.6-fold higher, 65.4 µM
- CCOC(=O)CC1CCN(C(=O)c2ccccc2)C2Cc3c([nH]c4ccccc34)C12C[N+](=O)[O-] (stereo not given) — higher, > 100 µM
- CC12CCC(C(=O)OC1=O)C2(C)C (stereo not given) — higher, > 100 µM
- CCOC(=O)C(N=Nc1ccc(S(N)(=O)=O)cc1)C(C)=O (stereo not given) — higher, > 100 µM
- Cc1ccc(C2CC(c3ccco3)=NN2c2ccccc2)o1 (stereo not given) — higher, > 100 µM
- C/C(=C1/CCCC2(N=NCC2c2ccccc2)C1=O)c1ccccc1 (stereo not given) — higher, > 100 µM
- CC(C)CC1[C@@H](OCc2ccccc2)COS(=O)N1Cc1ccccc1 (stereo not given in full) — higher, > 100 µM
- OCC1OC(n2cnc3c2NC=NC[C@H]3O)C(O)C1O (stereo not given in full) — higher, > 450 µM
- CNC(=S)N/N=C(C)\C(=N/NC(=S)NC)c1ccccc1 — higher, > 100 µM
- O=[N+]([O-])c1ccc(-n2nnc(C3=NCCCN3)c2-c2ccc(Cl)cc2)cc1 — higher, > 100 µM
- COc1cc2c(cc1OC)C(O)[C@H](Br)C(C)(C)O2 (stereo not given in full) — higher, > 100 µM
- COC1=C(Br)[C@H](O)[C@@]2(C=C1Br)CC(C(=O)NCCCCCN=C(N)N)=NO2 — not separable, > 10 µM
- CCCCCC(C[N+]1(C)CCOCC1)C(=O)/C=C/c1ccccc1 (stereo not given) — within 1.5-fold, 21.6 µM
- CC1(C#N)CC(C)(C)C(/C=C2/CC(C)(C)C(/C=C3/OC(=N)CC3(C)C)=N2)=N1 (stereo not given) — 2.4-fold higher, 60.9 µM
- COc1ccc(C[N+]23C(CC[C@H]2c2ccccc2)CC[C@H]3c2ccccc2)cc1 (stereo not given in full) — 2.4-fold higher, 61.7 µM
- O=C1c2cc3c(cc2CC12Cc1cc4c(cc1C2=O)CCC4)CCCC3 (stereo not given) — higher, > 100 µM
- CCOC(=O)CC1c2ccc(O)cc2OC(=O)C1c1ccc([N+](=O)[O-])cc1 (stereo not given) — higher, > 100 µM
- CC(=O)OCC1OC(Nc2ncc(-c3ccc(C)cc3)s2)C(OC(C)=O)C(OC(C)=O)C1OC(C)=O (stereo not given) — higher, > 100 µM
- CCN(CC)/C(Cl)=C(Cl)\C(=C1\Nc2ccc(OC)cc21)[N+](=O)[O-] — higher, > 100 µM

The compounds below were run on HT29 colon (assay: inhibition of tumour cell growth, NCI panel, 48 h).

Point of comparison: `C=C1C(=O)O[C@H]2[C@H]1[C@@H](OC(=O)C=C(C)C)CC1=C[C@@H](C[C@@]3(C)O[C@@H]23)OC1=O`, TGI 12.5 µM. Against it:
- Cc1ccc2c(c1CCCC(C)(C)O)C(=O)C(=O)C(C(C)C)=C2O — higher, > 100 µM
- CC(=O)c1sc2c(c1OC(=O)c1cccs1)c(=O)n(-c1ccccc1)c(=S)n2-c1ccccc1 — within 1.5-fold, 11.6 µM
- C[C@]12CCC(=O)C=C1CC[C@@H]1C2CC[C@]2(C)c3nn(-c4ccc(F)cc4)nc3CC12 (stereo not given in full) — higher, > 100 µM
- CN(C)C(=O)NCCN1CCCCCc2ccccc21 — higher, > 100 µM
- O=C1C(Cl)C(c2ccccc2)N1n1cnc2ccccc2c1=O (stereo not given) — higher, > 100 µM
- CN(C)C(=O)OCOC(=O)N(C)C — higher, > 100 µM
- CC(=O)Oc1ccccc1-c1cc2ccccc2oc1=O — higher, > 100 µM
- COC(=O)c1ccc(/C=C2\N=C(C)OC2=O)cc1 — higher, > 100 µM
- Cc1ccc2nc(-c3ccc(N)c(I)c3)sc2c1 — 2.8-fold higher, 34.8 µM
- CCOC(=O)c1nc2c(Cl)c3ncccc3cc2[nH]c1=O — higher, > 100 µM
- CCOC(=O)C1=C(Nc2cccc(OC)c2)OCC1=O — higher, > 100 µM
- O=C1NC(=O)C(CCO)(c2ccccc2)C(=O)N1 — higher, > 100 µM
- CO[C@H]1[C@@H](O)[C@@H](C)O[C@@H](O[C@H]2CC[C@@]3(C)[C@H](CC[C@@H]4[C@@H]3CC[C@]3(C)[C@@H](C5=CC(=O)OC5)[C@@H](OC(C)=O)C[C@]43O)C2)[C@@H]1O — 60-fold lower, 0.209 µM
- Cc1cn(C2CC(ON3C(=O)c4ccccc4C3=O)C(CO)O2)c(=O)[nH]c1=O (stereo not given) — not separable, > 10 µM
- CCCCN1C=CN2c3nc4cc(C)c(C)cc4n3C(C(=O)OC)=C(C(=O)OC)C12 (stereo not given) — higher, > 100 µM
- COC(=O)C(=C/c1ccc(OC)cc1)/C(C(=O)O)=C(/C)c1ccccc1 — higher, > 100 µM
- CCC1c2[nH]c3ccccc3c2C[C@H]2C(=O)NC(COC(C)(C)C)C(=O)N12 (stereo not given in full) — higher, > 100 µM
- CCOC(=O)CC1CCN(C(=O)c2ccccc2)C2Cc3c([nH]c4ccccc34)C12C[N+](=O)[O-] (stereo not given) — higher, > 100 µM
- CC12CCC(C(=O)OC1=O)C2(C)C (stereo not given) — higher, > 100 µM
- CCOC(=O)C(N=Nc1ccc(S(N)(=O)=O)cc1)C(C)=O (stereo not given) — higher, > 100 µM
- Cc1ccc(C2CC(c3ccco3)=NN2c2ccccc2)o1 (stereo not given) — higher, > 100 µM
- C/C(=C1/CCCC2(N=NCC2c2ccccc2)C1=O)c1ccccc1 (stereo not given) — 4.5-fold higher, 56.7 µM
- CCN1CCN(c2ccc(Nc3ccnc4ccc5nn(C)nc5c34)cc2)CC1 — within 1.5-fold, 16.6 µM
- CC(C)CC1[C@@H](OCc2ccccc2)COS(=O)N1Cc1ccccc1 (stereo not given in full) — 3.2-fold higher, 40.2 µM
- OCC1OC(n2cnc3c2NC=NC[C@H]3O)C(O)C1O (stereo not given in full) — higher, > 450 µM
- O=[N+]([O-])c1ccc(-n2nnc(C3=NCCCN3)c2-c2ccc(Cl)cc2)cc1 — higher, > 100 µM
- COc1cc2c(cc1OC)C(O)[C@H](Br)C(C)(C)O2 (stereo not given in full) — higher, > 100 µM
- COC1=C(Br)[C@H](O)[C@@]2(C=C1Br)CC(C(=O)NCCCCCN=C(N)N)=NO2 — not separable, > 10 µM
- CCCCCC(C[N+]1(C)CCOCC1)C(=O)/C=C/c1ccccc1 (stereo not given) — within 1.5-fold, 10.3 µM
- CC1(C#N)CC(C)(C)C(/C=C2/CC(C)(C)C(/C=C3/OC(=N)CC3(C)C)=N2)=N1 (stereo not given) — higher, > 100 µM
- COc1ccc(C[N+]23C(CC[C@H]2c2ccccc2)CC[C@H]3c2ccccc2)cc1 (stereo not given in full) — higher, > 100 µM
- O=C1c2cc3c(cc2CC12Cc1cc4c(cc1C2=O)CCC4)CCCC3 (stereo not given) — higher, > 100 µM
- CCOC(=O)CC1c2ccc(O)cc2OC(=O)C1c1ccc([N+](=O)[O-])cc1 (stereo not given) — higher, > 100 µM
- CC(=O)OCC1OC(Nc2ncc(-c3ccc(C)cc3)s2)C(OC(C)=O)C(OC(C)=O)C1OC(C)=O (stereo not given) — higher, > 100 µM
- CCN(CC)/C(Cl)=C(Cl)\C(=C1\Nc2ccc(OC)cc21)[N+](=O)[O-] — higher, > 100 µM
